Data: PMC8001472, “Novel Selective IDO1 Inhibitors with Isoxazolo[5,4-d]pyrimidin-4(5H)-one Scaffold” (Pharmaceuticals, 2021)

How the values were obtained:
hIDO2 = molecular target: T1, hIDO2 (Homo sapiens, UniProt Q6ZQW0); assay: hIDO2 inhibitory potency evaluation (fluorescence assay); assay type: biochemical; conditions: for inhibition at 100 µM: 100 µM compound, n.a. = not active, read-out: IDO2 % of Inhibition @ 100 µM
T1 construct: purchased Vinci-Biochem
T1 sequence (Q6ZQW0 1-407): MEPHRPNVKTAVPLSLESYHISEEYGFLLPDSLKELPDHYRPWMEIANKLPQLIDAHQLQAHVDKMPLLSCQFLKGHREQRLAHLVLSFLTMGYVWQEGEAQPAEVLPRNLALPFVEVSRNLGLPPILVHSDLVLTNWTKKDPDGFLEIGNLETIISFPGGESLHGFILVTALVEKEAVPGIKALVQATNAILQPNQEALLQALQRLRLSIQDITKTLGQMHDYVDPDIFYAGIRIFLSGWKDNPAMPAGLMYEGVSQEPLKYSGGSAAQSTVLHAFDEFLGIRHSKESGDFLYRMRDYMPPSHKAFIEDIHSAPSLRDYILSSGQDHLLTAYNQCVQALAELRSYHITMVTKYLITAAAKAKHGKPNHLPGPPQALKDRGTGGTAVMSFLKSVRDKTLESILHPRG
Protocol: (§1) Additionally, to determine IDO1 selectivity, all final compounds were assayed for their inhibitory potencies towards hIDO2 and hTDO. For this purpose, two new protocols were developed based on the published fluorescence assay for hIDO1 [25]. Sodium ascorbate, methylene blue, and bovine catalase were used in the same concentrations as for hIDO1. 50 mM phosphate buffers with pH values of 7.5 and 7.0 were used for hIDO2 and hTDO, respectively, as has been already mentioned before. First, the activities of hIDO2 and hTDO were determined at four different concentrations. […] Additionally, the effect of DMSO concentration on enzyme activity was investigated. […] The optimal hIDO2 and hTDO assay concentrations of the substrate L-Trp were determined to be 4 mM and 500 μM, respectively.
Activity of the compounds on hIDO2 was determined according to the previously reported fluorescence protocol for hIDO1 [25] and reported absorbance protocols for hIDO2 [30, 36] with several modifications. Recombinant hIDO2 was purchased from Vinci-Biochem (Vinci-Biochem, Srl, Vinci, Italy), bovine catalase was purchased from Sigma-Aldrich (Sigma-Aldrich, St. Louis, MO, USA). Prior to the measurement of activity for compounds, the enzyme activity was determined and optimal assay enzyme concentration was selected. The amounts of reagents needed to perform the assay were optimized. Briefly, the reagents needed were dissolved in 50 mM potassium phosphate buffer (pH 7.5, 0.01%, v/v Tween 20), the reaction was performed in black 384-well microplates. After the addition of 1 μL of 100 mM sodium ascorbate neutralized with an equimolar amount of 1M NaOH, 1 μL of 100 μM methylene blue, 1 μL of 1 mg/mL bovine catalase, 0.5 μL of DMSO (negative control) or solution of a compound in DMSO, 5 μL of […] hIDO2 and 1.5 μL of 26.7 mM L-Trp were added and the microplate was incubated for 60 min at 37 °C. The reaction was quenched with the addition of 10 μL of 400 mM piperidine solution in MilliQ water and the formation of the examined fluorophore began following incubation at 65 °C for 20 min. The production of NFK-derived fluorophore (λEX = 400 nm, λEM = 500 nm) was measured using a microplate reader (Synergy H4; BioTek Instruments, Inc., Winooski, VT, USA) after 60 min post-incubation at room temperature. In the preliminary testing compounds were tested at 100 μM with activities determined as residual activities—RA, which were calculated to% of inhibition, presented in Table 1 and Table 2. (% of inhibition = 100% − RA). All determinations were carried out in duplicates.

hTDO = molecular target: T2, hTDO (Homo sapiens, UniProt P48775); assay: hTDO inhibitory potency evaluation (fluorescence assay); assay type: biochemical; conditions: for inhibition at 100 µM: 100 µM compound, n.a. = not active, read-out: TDO % of Inhibition @ 100 µM
T2 construct: purchased Vinci-Biochem
T2 sequence (P48775 whole entry): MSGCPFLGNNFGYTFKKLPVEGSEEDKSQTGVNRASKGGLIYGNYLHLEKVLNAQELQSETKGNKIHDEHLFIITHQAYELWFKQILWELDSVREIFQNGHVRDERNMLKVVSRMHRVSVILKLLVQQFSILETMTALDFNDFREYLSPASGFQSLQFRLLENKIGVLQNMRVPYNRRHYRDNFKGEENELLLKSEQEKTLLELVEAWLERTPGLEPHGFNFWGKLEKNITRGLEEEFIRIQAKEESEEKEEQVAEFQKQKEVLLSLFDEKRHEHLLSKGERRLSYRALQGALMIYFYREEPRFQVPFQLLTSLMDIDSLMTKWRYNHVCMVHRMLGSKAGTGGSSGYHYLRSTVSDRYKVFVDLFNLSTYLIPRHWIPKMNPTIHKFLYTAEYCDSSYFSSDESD
Protocol: as §1
The activity of the compounds on hTDO was determined according to the previously reported fluorescence protocol for hIDO1 [25] and reported absorbance protocols for hTDO [30] with several modifications. Recombinant hTDO was purchased from Vinci-Biochem (Vinci-Biochem, Vinci, Italy), bovine catalase was purchased from Sigma-Aldrich (Sigma-Aldrich, St. Louis, MO, USA). Prior to the measurement of activity for compounds, the enzyme activity was determined, and optimal assay enzyme concentration was selected. The amounts of reagents needed to perform the assay were optimized. Briefly, the reagents needed were dissolved in 50 mM potassium phosphate buffer (pH 7.0, 0.01%, v/v Tween 20), the reaction was performed in black 384-well microplates. After the addition of 1 μL of 100 mM sodium ascorbate neutralized with equimolar amount of 1 M NaOH, 1 μL of 100 μM methylene blue, 1 μL of 1 mg/mL bovine catalase, 0.5 μL of DMSO (negative control) or solution of a compound, 5 μL of 300 nM hTDO and 1.5 μL of 3.3 mM L-Trp were added and the microplate was incubated for 60 min at 37 °C. The reaction was quenched with the addition of 10 μL of 400 mM piperidine solution in MilliQ water and the formation of the examined fluorophore began following incubation at 65 °C for 20 min. The production of NFK-derived fluorophore (λEX = 400 nm, λEM = 500 nm) was measured using a microplate reader (Synergy H4; BioTek Instruments, Inc., Winooski, VT, USA) after 60 min post-incubation at room temperature. In the preliminary testing compounds were tested at 100 μM with activities determined as residual activities—RA, which were calculated to% of inhibition, presented in Table 1 and Table 2 (% of inhibition = 100% − RA). All determinations were carried out in duplicates.

IDO1 = IDO1 (Homo sapiens, UniProt P14902); assay: hIDO1 inhibitory potency evaluation (fluorescence assay, NFK-derived fluorophore); assay type: biochemical; parameters: gene encoding human IDO1 residues 6-403 His-tagged at the N-terminus; His tag (N); made in house; host or cells: Escherichia coli NiCo21; conditions: for inhibition at 100 µM: 100 µM compound, n.a. = not active, read-out: IDO1 % of Inhibition @ 100 µM; for IC50: recombinant hIDO1, mean ± SD of at least two independent determinations, read-out: IDO1 IC50
Sequence of IDO1 (P14902 6-403): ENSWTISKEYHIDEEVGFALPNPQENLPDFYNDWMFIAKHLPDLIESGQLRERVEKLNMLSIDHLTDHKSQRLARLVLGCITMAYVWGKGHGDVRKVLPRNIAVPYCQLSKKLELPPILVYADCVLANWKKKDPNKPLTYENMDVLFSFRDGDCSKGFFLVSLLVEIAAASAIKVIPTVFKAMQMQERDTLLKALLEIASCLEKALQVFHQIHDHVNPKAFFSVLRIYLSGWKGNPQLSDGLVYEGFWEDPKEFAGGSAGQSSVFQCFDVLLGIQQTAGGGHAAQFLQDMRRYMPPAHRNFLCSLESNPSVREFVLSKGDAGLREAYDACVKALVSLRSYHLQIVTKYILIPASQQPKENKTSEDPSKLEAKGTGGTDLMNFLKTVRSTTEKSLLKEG

SMILES | melting point [°C] | inhibition at 100 µM (IDO1) [%] | IC50 (IDO1) [µM] | also measured
NS(=O)(=O)NCCNc1nonc1C(=NO)Nc1ccc(F)c(Br)c1 [epacadostat, reference compound] |  |  |  | IC50 (hIDO2; positive control, assay validation, read-out: IDO2 IC50): 0.58 µM; IC50 (hTDO): 9.62 µM
COC(=O)c1ccc(CNC(=O)Cn2cnc3onc(-c4ccc(F)cc4)c3c2=O)cc1 [Compound 21] | 165 to 167 | 27 ± 3 |  | 
O=C(Cn1cnc2onc(-c3ccc(F)cc3)c2c1=O)N1CCCc2ccccc21 [Compound 12] |  |  | 50 | 
COc1cc(NC(=O)Cn2cnc3onc(-c4ccc(F)cc4)c3c2=O)cc(OC)c1OC [Compound 34] | 219 to 221 |  |  | hIDO1 inhibition (in words) (IDO1): inactive
O=C(Cn1cnc2onc(-c3ccc(F)c(F)c3)c2c1=O)N1CCCc2ccccc21 [Compound 47] |  | 34 ± 1 |  | 
O=C(Cn1cnc2onc(-c3ccsc3)c2c1=O)N1CCCc2ccccc21 [Compound 52] |  | 23 ± 5 |  | 
COc1ccc(-c2noc3ncn(CC(=O)N4CCCc5ccccc54)c(=O)c23)cc1 [Compound 42] | 171 to 178 | 15 ± 4 |  | 
N#Cc1ccc(NC(=O)Cn2cnc3onc(-c4ccc(F)cc4)c3c2=O)cc1 [Compound 27] | > 250 | 11 ± 4 |  | hIDO1 inhibition (in words) (IDO1): inactive; inhibition at 100 µM (hTDO): 17 ± 2%
COC(=O)c1ccc(NC(=O)Cn2cnc3onc(-c4ccc(F)cc4)c3c2=O)cc1 [Compound 20] | 234 to 236 |  | 27 | hIDO1 inhibition (in words) (IDO1): low micromolar range
CC(C)c1ccc(NC(=O)Cn2cnc3onc(-c4ccc(F)cc4)c3c2=O)cc1 [Compound 31] | 198 to 202 |  | 87 | 
O=C(Cn1cnc2onc(-c3ccccc3)c2c1=O)N1CCCc2ccccc21 [Compound 38] |  |  |  | inhibition at 100 µM (hIDO2): 16 ± 4%
O=C(Cn1cnc2onc(-c3ccc(F)cc3)c2c1=O)Nc1cccc(C(F)(F)F)c1 [Compound 22] | 195 to 200 |  | 55 | 
O=C(Cn1cnc2onc(-c3ccc(F)cc3)c2c1=O)Nc1cccc2ccccc12 [Compound 35] | 210 to 215 | 20 ± 6 |  | 
CN(C)C(=O)Cn1cnc2onc(-c3ccc(F)cc3)c2c1=O [Compound 13] | 215 to 217 | 21 ± 5 |  | 
O=C(Cn1cnc2onc(-c3ccc(Br)cc3)c2c1=O)N1CCCc2ccccc21 [Compound 41] |  | 32 ± 1 |  | 
CS(=O)(=O)c1ccc(NC(=O)Cn2cnc3onc(-c4ccc(F)cc4)c3c2=O)cc1 [Compound 26] | 234 to 238 | 11 ± 2 |  | hIDO1 inhibition (in words) (IDO1): inactive
O=C(Cn1cnc2onc(-c3cccs3)c2c1=O)N1CCCc2ccccc21 [Compound 50] | 202 to 205 |  |  | 

SMILES | melting point [°C] | inhibition at 100 µM (IDO1) [%] | IC50 (IDO1) [µM] | also measured
O=C(Cn1cnc2onc(-c3ccc(F)cc3)c2c1=O)N1CCCCC1 [Compound 14] | 174 to 176 | 27 ± 4 |  | 
O=C(Cn1cnc2onc(-c3cccs3)c2c1=O)Nc1ccc([N+](=O)[O-])cc1 [Compound 51] |  |  | 53 | 
COC(=O)c1ccccc1NC(=O)Cn1cnc2onc(-c3ccc(F)cc3)c2c1=O [Compound 18] | 212 to 214 | 32 ± 4 |  | inhibition at 100 µM (hIDO2): 15 ± 1%
O=C(Cn1cnc2onc(-c3ccc(F)cc3)c2c1=O)NC12CC3CC(CC(C3)C1)C2 [Compound 15] | 204 to 205 |  | 88 | 
O=C(Cn1cnc2onc(-c3ccc(F)cc3)c2c1=O)Nc1ccc(-c2ncco2)cc1 [Compound 29] | 237 to 239 |  | 30 | inhibition at 100 µM (hTDO): 29 ± 3%
O=C(Cn1cnc2onc(-c3ccc(F)cc3)c2c1=O)Nc1ccc(F)cc1 [Compound 17] | 206 to 209 | 33 ± 2 |  | hIDO1 inhibition (in words) (IDO1): only weak inhibition
O=C(Cn1cnc2onc(-c3ccc(F)cc3)c2c1=O)Nc1ccc(C2CCCCC2)cc1 [Compound 32] |  |  | 22 | hIDO1 inhibition (in words) (IDO1): low micromolar range
COC(=O)c1cccc(NC(=O)Cn2cnc3onc(-c4ccc(F)cc4)c3c2=O)c1 [Compound 19] |  |  | 55 | 
O=C(Cn1cnc2onc(-c3ccc(F)c(F)c3)c2c1=O)Nc1ccc([N+](=O)[O-])cc1 [Compound 48] |  |  | 75 | inhibition at 100 µM (hTDO): 10 ± 6%
O=C(Cn1cnc2onc(-c3ccsc3)c2c1=O)Nc1ccc([N+](=O)[O-])cc1 [Compound 53] | 231 to 233 |  | 40 | inhibition at 100 µM (hIDO2): 21 ± 6%
O=C(Cn1cnc2onc(-c3ccc(F)cc3)c2c1=O)Nc1ccc2ccccc2c1 [Compound 36] | 180 to 184 |  | 46 | inhibition at 100 µM (hIDO2): 13 ± 2%
O=C(Cn1cnc2onc(-c3ccccc3)c2c1=O)Nc1ccc([N+](=O)[O-])cc1 [Compound 40] | 197 to 199 |  |  | inhibition at 100 µM (hIDO2): 16 ± 5%
O=C(Cn1cnc2onc(-c3ccc(F)cc3)c2c1=O)Nc1ccc(-c2nn[nH]n2)cc1 [Compound 30] |  |  |  | hIDO1 inhibition (in words) (IDO1): inactive; inhibition at 100 µM (hTDO): 17 ± 2%
O=C(Cn1cnc2onc(-c3ccc(F)cc3)c2c1=O)Nc1ccccc1 [Compound 16] | 203 to 205 | 15 ± 4 |  | inhibition at 100 µM (hIDO2): 28 ± 9%; hIDO1 inhibition (in words) (IDO1): only weak inhibition
CN(C)c1ccc(NC(=O)Cn2cnc3onc(-c4ccc(F)cc4)c3c2=O)cc1 [Compound 28] |  | 31 ± 3 |  | hIDO1 inhibition (in words) (IDO1): weak inhibition; inhibition at 100 µM (hTDO): 18 ± 4%
O=C(Cn1cnc2onc(-c3ccc(OCc4ccccc4)cc3)c2c1=O)N1CCCc2ccccc21 [Compound 46] | 200 to 202 | 14 ± 3 |  | 
O=C(Cn1cnc2onc(-c3ccc(F)cc3)c2c1=O)N1CCc2ccccc2C1 [Compound 37] | 201 to 203 | 17 ± 5 |  | 
